The assay deals with KB. As to the kind of experiment: Cytotoxicity against human KB cells. The format is functional. The settings on record: for EC50: read-out: ED50 (the source's name).

Converted amounts (≈) assume the structure as drawn. The source made the active and inactive calls. The calls are words filed in the database; no cut-off is given here.

Regarding `C/C=C(/C)C(=O)O[C@H]1[C@H](O)[C@]2(CO)[C@H](O)C[C@]3(C)C(=CC[C@@H]4[C@@]5(C)CC[C@H](O)C(C)(C)[C@@H]5CC[C@]43C)[C@@H]2CC1(C)C`, the EC50 was determined as 3 µg/mL (≈ 5.24 µM).

For the compound `CC1(C)OC[C@@]23[C@@H]4OC(C)(C)O[C@@H]4[C@]4(C)C(=CC[C@@H]5[C@@]6(C)CC[C@H](O)C(C)(C)[C@@H]6CC[C@]54C)[C@@H]2CC(C)(C)[C@@H](O)[C@@H]3O1`, the EC50 came to 4 µg/mL (≈ 6.82 µM).

Turning to `C/C=C(/C)C(=O)O[C@H]1[C@H](OC(=O)/C(C)=C/C)C(C)(C)C[C@H]2C3=CC[C@@H]4[C@@]5(C)CC[C@H](O)C(C)(C)[C@@H]5CC[C@@]4(C)[C@]3(C)[C@@H](O)[C@@H](O)[C@]21CO` [HIPPOCAESCULIN], the EC50 is 3.6 µg/mL (≈ 5.37 µM).

`CC1(C)C[C@H]2C3=CC[C@@H]4[C@@]5(C)CC[C@H](O)C(C)(C)[C@@H]5CC[C@@]4(C)[C@]3(C)[C@@H](O)[C@@H](O)[C@@]2(CO)[C@@H](O)[C@@H]1O`: the result was inactive.

As to `CC1(C)C[C@H]2C3=CC[C@@H]4[C@@]5(C)CC[C@H](O)C(C)(C)[C@@H]5CC[C@@]4(C)[C@]3(C)C[C@@H](O)[C@@]2(CO)[C@@H](O)[C@@H]1O`, the outcome was inactive.

For the origin of these results see ChEMBL document CHEMBL1149013, “Antitumor agents, 82. Cytotoxic sapogenols from Aesculus hippocastanum” (1986).
